Data published in patent US10835519B2, “Targeting metabolic adaptive responses to chemotherapy” (University of Cincinnati, priority 2012, dated 2020).
Entries after “also recorded” stand apart in the source; their conditions may differ.

Legend:
BCR-ABL+ FL5.12 cells [1] = assay: Viability by propidium iodide exclusion (flow cytometer); assay type: cell-based; details: for viability (cell death): 22 hours, FIG. 12
Procedure: BCR-ABL^+ FL5.12 cells were cultured in cytokine-free medium containing either 0.2 mM glucose (“low glucose”; -Glucose) or 10 mM glucose (“high glucose”, +Glucose) for 48 hours. The mean viability and standard deviation were determined by propidium iodide exclusion in a FACSAria flow cytometer (BD). Cells were washed three times in PBS and resuspended at a concentration of 2×10^5 per mL in media supplemented with 2 μg/mL of propidium iodide (Molecular Probes) prior to analysis. For the viability analysis of BCL-ABL^+ primary bone marrow cells, viability was measured after withdrawal from cytokines for five (5) days in high glucose or low glucose media. Methods used for culturing cells and measuring viability are described above and below.
Fatty acid oxidation inhibition via ST247, an inverse agonist that inhibits PPARδ activity, was examined. BCR-ABL-expressing FL5.12 cells were pretreated with vehicle control or 20 nM rapamycin overnight. Cells were cultured for 22 hours in complete medium lacking IL-3 and glucose, supplemented with the indicated treatments (vehicle, 0.5 μM ST247, 1 μM ST247, or 5 μM ST247). Viability was measured in three technical replicates by propidium iodide (PI) exclusion using a flow cytometer. […] The effect was dose dependent, with lesser concentrations resulting in little effect in rapamycin-treated cells.
In order to investigate the metabolic switch as glycolysis declines, BCR-ABL-expressing FL5.12 cells were pretreated with vehicle control or 20 nM rapamycin overnight. Cells were then cultured in complete medium lacking IL-3 with 100 μM glucose (a limiting concentration) for 46 hours, supplemented with either vehicle control or 5 μM ST247. Viability was measured in three technical replicates by PI exclusion in a flow cytometer.
BCR-ABL-expressing FL5.12 cells were pretreated with vehicle control or 20 nM rapamycin overnight. Cells were then cultured in complete medium lacking IL-3 with 50 μM glucose for 48 hours, supplemented with the indicated treatments (vehicle, 1 μM GW6471, 10 μM GW7647, or 5 μM ST247). Viability was measured in three technical replicates by PI exclusion in a flow cytometer.

Akt = Akt phosphorylation immunoblot in BCR-ABL+ FL5.12 cells; assay type: cell-based, murine; details: rebound after S6K1 knockdown; FIG. 5A
Procedure: Although Akt activation has been previously associated with glucose-dependent survival (see FIG. 4A), rebound activation of Akt was tested for association with increased survival in BCR-ABL^+ cells cultured under low glucose conditions. […] Inactivation of mTORC1 and S6K1 can trigger increases in the activity of Akt and other upstream kinases, due to knockdown or loss of feedback regulation.
Rapamycin treatment can induce rebound Akt activation in short-term cultures, but long term treatment can suppress Akt activation by the upstream kinase mTORC2. See, e.g., Sarbassov, et al., (2006) Mol Cell 22:159-68.

BCR-ABL+ FL5.12 cells [2] = assay: Fatty acid oxidation, 3H release from 3H-palmitate; assay type: cell-based, murine; details: etomoxir, upon S6K1 inactivation; FIG. 7A
Procedure: (§1) The rate of ^3H release from ^3H-palmitate was used to measure FAO. The ^3H-palmitate was adopted from Djouadi, et al., (2003) Mol Genet Metab 78:112-8. Between approximately 0.5×10^6 and approximately 1.0×10^6 cells were washed with PBS, then cultured with approximately 400 μL of (9,10-^3H) palmitate:albumin for approximately 4 hours at approximately 37 degrees C. After incubation, approximately 10% TCA was added to each tube and centrifuged at approximately 3300 rpm for approximately 10 min at approximately 4 degrees C. before being mixed with 6N NaOH and applied to ion-exchange columns. Each column was washed with approximately 1 mL of water and the eluates were counted using a scintillation counter.

BCR-ABL+ KBM7 cells = assay: Fatty acid oxidation, 3H release from 3H-palmitate; assay type: cell-based, human; details: etomoxir and/or rapamycin; FIG. 7C
Procedure: as §1

BCR-ABL+ K562 cells [3] = assay: Fatty acid oxidation, 3H release from 3H-palmitate; assay type: cell-based, human; details: etomoxir and/or rapamycin; FIG. 7B
Procedure: as §1

BCR-ABL+ K562 cells [4] = assay: Viability by propidium iodide exclusion; assay type: cell-based, human; details: full glucose; FIG. 10; not as strong as S6K1 knockdown with etomoxir
S6K1 = assay: Ribosomal protein S6 phosphorylation as readout of S6K1 activity; assay type: cell-based; details: imatinib 1.5 μM
Procedure: In particular, vector control and BCR-ABL^+ cells were cultured for three (3) hours in the absence of growth factor, then restimulated for thirty (30) minutes for analysis of S6K1 phosphorylation at T389 and the phosphorylation of ribosomal protein S6 at serines 235/236.
Small ribosomal protein S6 (pS^6) phosphorylation was measured.

In the case of `NC(=O)c1ncn([C@@H]2O[C@H](CO)[C@@H](O)[C@H]2O)c1N` [AICAR, 5-aminoimidazole-4-carboxamide 1-β-D-ribofuranoside], the glucose-independent survival (BCR-ABL+ FL5.12 cells [1]; AICAR, low glucose, level similar to S6K1 knockdown, FIG. 8B) is reported as “triggered glucose-independent survival”.
For `Cn1c(=O)n(-c2ccc(C(C)(C)C#N)cc2)c2c3cc(-c4cnc5ccccc5c4)ccc3ncc21` [BEZ235], the glucose-independent survival (BCR-ABL+ FL5.12 cells [1]; S6K1 inactivation (knockdown) plus BEZ235, low glucose, FIG. 5B) was “did not prevent glucose-independent survival” and the “Akt activation (phosphorylation at serine 473)” value (Akt) was “prevented the increase in Akt activation”.
With `CCC(=O)NC[C@H](Cc1ccc(OCCc2nc(-c3ccccc3)oc2C)cc1)N/C(C)=C\C(=O)c1ccc(C(F)(F)F)cc1` [GW6471, N-((2S)-2-(((1Z)-1-Methyl-3-oxo-3-(4-(trifluoromethyl)phenyl)prop-1-enyl)amino)-3-(4-(2-(5-methyl-2-phenyl-1,3-oxazol-4-yl)ethoxy)phenyl)propyl)propanamide] the “viability (restoring apoptosis)” value (BCR-ABL+ FL5.12 cells [1]; 1 μM GW6471, 20 nM rapamycin pretreated, 50 μM glucose, 48 hours, FIG. 14) was “somewhat effective in restoring apoptosis”.
With `CC(C)(Sc1ccc(CCN(CCCCC2CCCCC2)C(=O)NC2CCCCC2)cc1)C(=O)O` [GW7647] the viability (BCR-ABL+ FL5.12 cells [1]; 10 μM GW7647, vehicle-control treated cells, 50 μM glucose, 48 hours, FIG. 14) was “undesired increase in viability”.
In the case of `CCCCCCNc1ccc(NS(=O)(=O)c2ccsc2C(=O)OC)c(OC)c1` [ST247], the “viability (cell death)” value (BCR-ABL+ FL5.12 cells [1]; 5 μM ST247, 20 nM rapamycin pretreated overnight, no IL-3, no glucose) is reported as “triggered substantial cell death”, the “viability (restoring apoptosis)” value (BCR-ABL+ FL5.12 cells [1]; 5 μM ST247, 20 nM rapamycin pretreated, 50 μM glucose, 48 hours, FIG. 14) is reported as “restoring apoptosis” and the “viability (survival advantage)” value (BCR-ABL+ FL5.12 cells [1]; 5 μM ST247, 20 nM rapamycin pretreated, 100 μM glucose, 46 hours, FIG. 13) is reported as “counteracted the survival advantage induced by rapamycin”. The “viability (cell death)” value (BCR-ABL+ FL5.12 cells [1]; lesser concentrations of ST247 (0.5 μM, 1 μM), rapamycin-treated, no glucose) was “little effect”.
`CCOC(=O)[C@@]1(CCCCCCOc2ccc(Cl)cc2)CO1` [etomoxir] was tested, and the “3H release from 3H-palmitate (FAO)” value (BCR-ABL+ FL5.12 cells [2]) was “reduced ^3H release”, the “3H release from 3H-palmitate (FAO)” value (BCR-ABL+ KBM7 cells) was “reduced ^3H release” and the “3H release from 3H-palmitate (FAO)” value (BCR-ABL+ K562 cells [3]) was “reduced ^3H release”. For the same compound, the “cytotoxicity of etomoxir in the presence of rapamycin” value (BCR-ABL+ K562 cells [4]) was “enhanced cytotoxicity”, the “apoptosis, combination with S6K1 knockdown” value (BCR-ABL+ FL5.12 cells [1]; 200 μM etomoxir plus S6K1 knockdown, full glucose, approximately 48 hours, FIG. 9A) was “induced significant apoptosis” and the “cytotoxicity as a single agent” value (BCR-ABL+ FL5.12 cells [1]; 200 μM etomoxir, full glucose, approximately 48 hours, FIG. 9A) was “mild cytotoxic effect”. For the same compound, the “cell death in response to etomoxir, dose curve with S6K1 knockdown” value (BCR-ABL+ FL5.12 cells [1]; etomoxir about 200 μM to about 300 μM, full glucose, FIG. 9B) was “enhanced cell death”, the “cell survival mediated by AICAR” value (BCR-ABL+ FL5.12 cells [1]; low glucose, etomoxir added, FIG. 8B) was “prevented cell survival” and the “survival of S6K1 knockdown cells” value (BCR-ABL+ FL5.12 cells [1]; low glucose, presence of etomoxir, FIG. 8A, 8B) was “prevented the survival; also recorded: prevented cell survival”.
With `Cc1ccc(NC(=O)c2ccc(CN3CCN(C)CC3)cc2)cc1Nc1nccc(-c2cccnc2)n1` [imatinib] the “S6K1 activity (phosphorylation of pS6)” value (S6K1) was “reduced S6K1 activity”.
